Source: ChEMBL document CHEMBL4376834, “Discovery of 4H-Chromen-4-one Derivatives as a New Class of Selective Rho Kinase (ROCK) Inhibitors, which Showed Potent Activity in ex Vivo Diabetic Retinopathy Models” (J Med Chem, 2019)

Columns and labels:
[1] = target: Serine/threonine-protein kinase Nek4 (Homo sapiens, UniProt P51957, P225A); test: Inhibition of recombinant full-length human NEK4 P225A mutant using myelin basic protein as substrate measured after 40 mins in presence of [gamma33P]ATP by radiometric scintillation counting analysis
Activated CDC42 kinase 1 = Activated CDC42 kinase 1 (Homo sapiens, UniProt Q07912); test: Inhibition of human recombinant ACK1 (1 to 389 residues) using EFPIYDFLPAKKK as substrate incubated for 40 mins in presence of [gamma-33P]ATP by radiometric scintillation counting analysis
[2] = target: Calcium/calmodulin-dependent protein kinase type II subunit gamma (Homo sapiens, UniProt Q13555); test: Inhibition of recombinant human CaMK2gamma (1 to 330 residues) using calmodulin as substrate incubated for 40 mins in presence of [gamma-33ATP] by radiometric scintillation counting analysis
[3] = target: Vascular endothelial growth factor receptor 1 (Homo sapiens, UniProt P17948); test: Inhibition of recombinant human FLT1 (783 to end residues) using KKKSPGEYVNIEF as substrate after 40 mins in presence of [gamma-33ATP] by radiometric scintillation counting analysis
[4] = target: Serine/threonine-protein kinase VRK2 (Homo sapiens, UniProt Q86Y07); test: Inhibition of recombinant human VRK2 (1 to 336 residues) using casein as substrate incubated for 40 mins in presence of [gamma33P]ATP by radiometric scintillation counting analysis
[5] = Half life in rat liver microsomes measured upto 45 mins in presence of NADPH by LC-MS analysis; assay type: ADME, Microsome
[6] = target: NUAK family SNF1-like kinase 2 (Homo sapiens, UniProt Q9H093); test: Inhibition of recombinant human full length NUAK2 using KKKVSRSGLYRSP as substrate measured after 40 mins in presence of [gamma33P]ATP by radiometric scintillation counting analysis
[7] = target: Mast/stem cell growth factor receptor Kit (Homo sapiens, UniProt P10721, V654A); test: Inhibition of recombinant human C-Kit V654A mutant (544 to end residues) using poly(Glu, Tyr) 4:1 as substrate incubated 40 mins in presence of [gamma-33ATP] by radiometric scintillation counting analysis
[8] = Inhibition of activated recombinant human TEC F514V mutant (174 to end residues) using EFPIYDFLPAKKK as substrate incubated for 40 mins in presence of [gamma33P]ATP by radiometric scintillation counting analysis
[9] = target: Serine/threonine-protein kinase TBK1 (Homo sapiens, UniProt Q9UHD2); test: Inhibition of recombinant full length human TBK1 using KRRRALS(p)VAS as substrate incubated for 40 mins in presence of [gamma33P]ATP by radiometric scintillation counting analysis
[10] = target: Tyrosine-protein kinase HCK (Homo sapiens, UniProt P08631); test: Inhibition of human recombinant activated HCK (230 to 497 residues) using GGMEDIYFEFMGG as substrate after 40 mins by [gamma-33ATP] radiometric assay
[11] = Inhibition of recombinant human Ros V2262A mutant (1883 to end residues) using KKKSPGEYVNIEFG as substrate incubated for 40 mins in presence of [gamma33P]ATP by radiometric scintillation counting analysis
[12] = target: Serine/threonine-protein kinase 38-like (Homo sapiens, UniProt Q9Y2H1); test: Inhibition of recombinant human NDR2 (83 to end residues) using RSRSRSRSRSRSRSR as substrate measured after 40 mins in presence of [gamma33P]ATP by radiometric scintillation counting analysis
[13] = target: Serine/threonine-protein kinase VRK1 (Homo sapiens, UniProt Q99986); test: Inhibition of human VRK1 in presence of 10 uM ATP by radiometric analysis
Rhodopsin kinase GRK1 = Rhodopsin kinase GRK1 (Homo sapiens, UniProt Q15835); test: Inhibition of recombinant full length human GRK1 using KKKKERLLDDRHD as substrate after 40 mins in presence of [gamma-33ATP] by radiometric scintillation counting analysis
CDC7/Cyclin B1 = CDC7/Cyclin B1 (Homo sapiens, UniProt O00311+P14635); test: Inhibition of recombinant full length human CDC7/CyclinB1 using Histone H1 as substrate incubated for 120 mins in presence of [gamma-33ATP] by radiometric scintillation counting analysis; assay type: protein-complex assay
[14] = target: Casein kinase I isoform gamma-3 (Homo sapiens, UniProt Q9Y6M4, E302D/K91E/R174G); test: Inhibition of recombinant human CK1gamma3 K91E/R174G/E302D triple mutant (1 to 330 residues) using KRRRALS(p)VAS as substrate incubated for 40 mins in presence of [gamma-33ATP] by radiometric scintillation counting analysis
Misshapen-like kinase 1 = Misshapen-like kinase 1 (Homo sapiens, UniProt Q8N4C8); test: Inhibition of recombinant human MINK (1 to 310 residues) using myelin basic protein as substrate incubated for 40 mins in presence of [gamma-33ATP by radiometric scintillation counting analysis
[15] = target: DNA-dependent protein kinase catalytic subunit (Homo sapiens, UniProt P78527); test: Inhibition of recombinant full length human DNA-PK using GST-cMyc-p53 as substrate incubated for 40 mins by fluorescence assay
[16] = target: Mitogen-activated protein kinase kinase kinase kinase 3 (Homo sapiens, UniProt Q8IVH8); test: Inhibition of recombinant human MAP4K3 (1 to 291 residues) using RLGRDKYKTLRQI as substrate incubated for 40 mins in presence of [gamma-33ATP by radiometric scintillation counting analysis
[17] = target: Serine/threonine-protein kinase NLK (Homo sapiens, UniProt Q9UBE8); test: Inhibition of recombinant human NLK (121 to end residues) using protein as substrate measured after 40 mins in presence of [gamma33P]ATP by radiometric scintillation counting analysis
[18] = target: Hepatocyte growth factor receptor (Homo sapiens, UniProt P08581, A1209G/V1290L); test: Inhibition of recombinant human MET A1209G/V1290L double mutant (974 to end residues) using KKKGQEEEYVFIE as substrate incubated for 40 mins in presence of [gamma-33ATP by radiometric scintillation counting analysis
[19] = target: Testis-specific serine/threonine-protein kinase 2 (Homo sapiens, UniProt Q96PF2); test: Inhibition of recombinant full-length human TSSK2 using KKKVSRSGLYRSP as substrate incubated for 40 mins in presence of [gamma33P]ATP by radiometric scintillation counting analysis
[20] = target: MAPK/MAK/MRK overlapping kinase (Homo sapiens, UniProt Q9UQ07); test: Inhibition of recombinant human MOK (1 to 343 residues) using RSRSRSRSRSRSR as substrate incubated for 40 mins in presence of [gamma-33ATP by radiometric scintillation counting analysis
[21] = target: Serine/threonine-protein kinase Sgk2 (Homo sapiens, UniProt Q9HBY8, S416D); test: Inhibition of recombinant human SGK2 S416D mutant (54 to end residues) using GRPRTSSFAEGKK as substrate incubated for 40 mins in presence of [gamma33P]ATP by radiometric scintillation counting analysis
Chain of Serine/threonine-protein kinase Sgk2 (Q9HBY8 as listed by the source S416D): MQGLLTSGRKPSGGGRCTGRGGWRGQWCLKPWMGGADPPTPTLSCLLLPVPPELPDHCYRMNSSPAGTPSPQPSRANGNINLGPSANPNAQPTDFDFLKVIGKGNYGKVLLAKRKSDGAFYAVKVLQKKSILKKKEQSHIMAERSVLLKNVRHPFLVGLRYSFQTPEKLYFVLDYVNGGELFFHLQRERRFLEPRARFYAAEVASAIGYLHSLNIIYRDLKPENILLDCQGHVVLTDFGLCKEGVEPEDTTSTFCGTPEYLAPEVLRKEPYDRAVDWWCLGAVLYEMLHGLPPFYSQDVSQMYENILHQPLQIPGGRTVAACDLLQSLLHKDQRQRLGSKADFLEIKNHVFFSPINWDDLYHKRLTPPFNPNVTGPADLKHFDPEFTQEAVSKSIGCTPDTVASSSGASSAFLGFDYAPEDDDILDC

Chain of NUAK family SNF1-like kinase 2 (Q9H093 whole entry): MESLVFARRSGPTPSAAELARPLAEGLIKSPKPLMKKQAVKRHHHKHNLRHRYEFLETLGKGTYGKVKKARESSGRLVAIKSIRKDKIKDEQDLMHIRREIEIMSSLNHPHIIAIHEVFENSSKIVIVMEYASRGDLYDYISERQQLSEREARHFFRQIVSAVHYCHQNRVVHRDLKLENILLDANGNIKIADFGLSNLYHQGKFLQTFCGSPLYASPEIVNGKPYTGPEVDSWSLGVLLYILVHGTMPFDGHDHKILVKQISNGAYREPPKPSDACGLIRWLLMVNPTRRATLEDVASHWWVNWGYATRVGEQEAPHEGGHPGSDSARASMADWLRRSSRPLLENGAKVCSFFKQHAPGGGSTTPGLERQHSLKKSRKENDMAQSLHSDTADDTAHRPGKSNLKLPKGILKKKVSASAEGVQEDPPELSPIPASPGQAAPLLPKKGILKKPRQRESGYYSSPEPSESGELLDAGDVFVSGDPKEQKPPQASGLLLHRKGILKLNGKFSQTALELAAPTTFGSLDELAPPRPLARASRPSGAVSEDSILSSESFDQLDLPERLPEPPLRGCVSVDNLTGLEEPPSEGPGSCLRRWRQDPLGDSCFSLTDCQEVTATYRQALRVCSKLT
Chain of Serine/threonine-protein kinase TBK1 (Q9UHD2 whole entry, the tested form may be a part): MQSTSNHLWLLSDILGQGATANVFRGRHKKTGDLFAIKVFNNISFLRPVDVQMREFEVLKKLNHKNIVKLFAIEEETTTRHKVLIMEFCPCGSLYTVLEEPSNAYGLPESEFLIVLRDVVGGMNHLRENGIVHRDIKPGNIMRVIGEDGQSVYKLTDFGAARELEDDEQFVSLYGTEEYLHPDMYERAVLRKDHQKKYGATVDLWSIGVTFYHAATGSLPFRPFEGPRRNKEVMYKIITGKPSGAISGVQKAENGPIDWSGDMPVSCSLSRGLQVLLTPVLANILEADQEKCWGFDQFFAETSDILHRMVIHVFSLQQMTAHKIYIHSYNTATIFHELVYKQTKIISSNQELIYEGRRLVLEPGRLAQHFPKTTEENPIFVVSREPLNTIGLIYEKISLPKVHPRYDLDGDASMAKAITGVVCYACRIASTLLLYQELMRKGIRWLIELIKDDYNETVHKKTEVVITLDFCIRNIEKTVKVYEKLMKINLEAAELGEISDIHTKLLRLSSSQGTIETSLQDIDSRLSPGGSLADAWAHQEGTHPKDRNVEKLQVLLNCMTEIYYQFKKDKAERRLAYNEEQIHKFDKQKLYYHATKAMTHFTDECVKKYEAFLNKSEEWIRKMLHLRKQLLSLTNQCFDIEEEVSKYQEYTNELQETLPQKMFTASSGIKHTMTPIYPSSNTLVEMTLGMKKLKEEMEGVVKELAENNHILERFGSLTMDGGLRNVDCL
Chain of Casein kinase I isoform gamma-3 (Q9Y6M4 whole entry K91E, the tested form may be a part, canonical isoform): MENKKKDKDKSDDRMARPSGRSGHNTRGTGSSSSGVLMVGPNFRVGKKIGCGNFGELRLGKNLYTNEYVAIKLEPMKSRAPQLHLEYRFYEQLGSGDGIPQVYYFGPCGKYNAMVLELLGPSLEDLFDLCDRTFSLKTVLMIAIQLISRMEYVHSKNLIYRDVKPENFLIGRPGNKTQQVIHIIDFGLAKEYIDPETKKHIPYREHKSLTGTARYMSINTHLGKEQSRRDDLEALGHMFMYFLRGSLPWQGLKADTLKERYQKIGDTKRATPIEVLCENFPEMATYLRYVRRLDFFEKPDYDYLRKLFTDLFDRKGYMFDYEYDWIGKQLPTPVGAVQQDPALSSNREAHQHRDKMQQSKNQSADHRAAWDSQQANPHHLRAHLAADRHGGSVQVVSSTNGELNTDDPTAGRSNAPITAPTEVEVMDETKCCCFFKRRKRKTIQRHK
Chain of Activated CDC42 kinase 1 (Q07912 whole entry, the tested form may be a part): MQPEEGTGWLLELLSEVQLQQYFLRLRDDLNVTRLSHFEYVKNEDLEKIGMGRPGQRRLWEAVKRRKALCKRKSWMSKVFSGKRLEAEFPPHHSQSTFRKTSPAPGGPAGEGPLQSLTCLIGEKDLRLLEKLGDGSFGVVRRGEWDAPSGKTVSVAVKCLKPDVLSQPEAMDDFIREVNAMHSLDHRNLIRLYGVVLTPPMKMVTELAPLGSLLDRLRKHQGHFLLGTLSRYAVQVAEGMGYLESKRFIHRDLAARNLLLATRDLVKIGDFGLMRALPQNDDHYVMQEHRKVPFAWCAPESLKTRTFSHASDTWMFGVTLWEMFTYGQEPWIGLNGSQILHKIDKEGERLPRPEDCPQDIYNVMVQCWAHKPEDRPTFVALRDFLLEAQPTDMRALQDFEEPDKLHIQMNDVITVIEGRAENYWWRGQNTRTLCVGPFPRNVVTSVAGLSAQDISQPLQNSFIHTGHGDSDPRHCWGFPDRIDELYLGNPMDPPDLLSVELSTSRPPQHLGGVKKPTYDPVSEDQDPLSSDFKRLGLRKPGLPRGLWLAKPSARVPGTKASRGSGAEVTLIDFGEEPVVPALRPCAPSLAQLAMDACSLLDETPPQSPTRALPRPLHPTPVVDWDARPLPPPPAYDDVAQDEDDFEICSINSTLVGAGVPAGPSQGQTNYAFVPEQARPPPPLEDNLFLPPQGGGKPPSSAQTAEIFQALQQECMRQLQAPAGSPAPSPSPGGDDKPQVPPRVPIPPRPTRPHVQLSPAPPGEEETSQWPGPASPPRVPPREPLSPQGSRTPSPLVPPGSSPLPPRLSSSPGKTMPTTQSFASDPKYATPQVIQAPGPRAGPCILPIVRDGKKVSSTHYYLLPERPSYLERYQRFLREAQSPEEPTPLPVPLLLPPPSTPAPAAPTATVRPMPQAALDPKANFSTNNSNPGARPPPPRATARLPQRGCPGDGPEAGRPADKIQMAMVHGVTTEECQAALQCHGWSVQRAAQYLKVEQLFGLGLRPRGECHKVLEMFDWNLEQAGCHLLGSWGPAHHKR
Chain of Mast/stem cell growth factor receptor Kit (P10721 26-976 V654A limits assumed): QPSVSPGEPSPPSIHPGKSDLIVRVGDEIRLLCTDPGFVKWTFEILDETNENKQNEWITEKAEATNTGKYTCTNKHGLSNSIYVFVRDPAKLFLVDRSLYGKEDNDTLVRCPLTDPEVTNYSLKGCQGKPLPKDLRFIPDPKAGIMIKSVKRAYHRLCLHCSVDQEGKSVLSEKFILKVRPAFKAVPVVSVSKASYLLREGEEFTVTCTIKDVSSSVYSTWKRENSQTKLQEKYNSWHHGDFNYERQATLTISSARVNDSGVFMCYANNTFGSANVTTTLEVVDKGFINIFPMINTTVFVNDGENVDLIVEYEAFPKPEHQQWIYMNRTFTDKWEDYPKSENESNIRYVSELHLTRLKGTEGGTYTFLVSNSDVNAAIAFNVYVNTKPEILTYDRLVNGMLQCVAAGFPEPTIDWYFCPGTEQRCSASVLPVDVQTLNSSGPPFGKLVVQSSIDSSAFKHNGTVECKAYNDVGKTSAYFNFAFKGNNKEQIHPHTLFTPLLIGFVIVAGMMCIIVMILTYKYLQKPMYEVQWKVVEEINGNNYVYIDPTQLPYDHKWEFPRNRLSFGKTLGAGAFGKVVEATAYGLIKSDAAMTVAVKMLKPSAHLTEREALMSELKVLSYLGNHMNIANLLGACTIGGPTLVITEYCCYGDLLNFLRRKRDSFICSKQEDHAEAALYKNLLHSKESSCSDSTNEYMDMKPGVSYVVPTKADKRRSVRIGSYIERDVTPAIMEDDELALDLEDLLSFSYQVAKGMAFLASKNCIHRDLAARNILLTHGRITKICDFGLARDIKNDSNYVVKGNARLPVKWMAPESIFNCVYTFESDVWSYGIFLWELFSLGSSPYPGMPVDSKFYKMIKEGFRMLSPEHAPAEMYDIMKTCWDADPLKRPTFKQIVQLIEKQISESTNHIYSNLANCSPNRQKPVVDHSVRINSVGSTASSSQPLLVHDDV
Chain of Rhodopsin kinase GRK1 (Q15835 whole entry): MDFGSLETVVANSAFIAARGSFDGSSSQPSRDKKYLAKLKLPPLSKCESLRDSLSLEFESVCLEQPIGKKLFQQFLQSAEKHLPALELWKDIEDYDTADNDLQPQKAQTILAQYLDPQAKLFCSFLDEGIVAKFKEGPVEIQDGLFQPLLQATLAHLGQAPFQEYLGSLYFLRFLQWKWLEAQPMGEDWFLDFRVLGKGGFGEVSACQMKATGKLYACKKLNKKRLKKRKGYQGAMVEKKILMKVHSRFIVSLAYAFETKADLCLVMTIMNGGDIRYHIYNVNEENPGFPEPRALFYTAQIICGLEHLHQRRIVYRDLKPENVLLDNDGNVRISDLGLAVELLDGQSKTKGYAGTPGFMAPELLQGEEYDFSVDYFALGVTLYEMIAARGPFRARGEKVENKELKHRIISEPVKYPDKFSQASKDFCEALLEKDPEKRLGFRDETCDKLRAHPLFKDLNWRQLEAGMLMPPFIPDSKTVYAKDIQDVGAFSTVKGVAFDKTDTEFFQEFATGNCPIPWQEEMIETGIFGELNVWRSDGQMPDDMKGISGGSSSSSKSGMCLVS

## CN(C)c1ccc(C(=O)Nc2cccc(NC(=O)COc3ccc4c(=O)ccoc4c3)c2)cc1
[1]
  IC50: > 10 µM
Activated CDC42 kinase 1
  IC50: > 10 µM
[2]
  IC50: > 10 µM
[3]
  IC50: > 10 µM
[4]
  IC50: > 10 µM
[5]
  half-life: 1.1 min
[6]
  IC50: > 10 µM
[7]
  IC50: > 10 µM
[8]
  IC50: > 10 µM
[9]
  IC50: > 10 µM
[10]
  IC50: > 10 µM
[11]
  IC50: > 10 µM
[12]
  IC50: > 10 µM
[13]
  IC50: > 10 µM
Rhodopsin kinase GRK1
  IC50: > 10 µM
CDC7/Cyclin B1
  IC50: > 10 µM
[14]
  IC50: > 10 µM
Misshapen-like kinase 1
  IC50: > 10 µM
[15]
  IC50: > 10 µM
[16]
  IC50: > 10 µM
[17]
  IC50: > 10 µM
[18]
  IC50: > 10 µM
[19]
  IC50: > 10 µM
[20]
  IC50: > 10 µM
[21]
  IC50: > 10 µM
